Measured values reported in article PMC6272428 (Molecules, 2015).

Assays:
[1] = Pharmacokinetics of four compounds in plasma after oral administration of GSBXD and its plus-minus prescriptions in normal rats (LC-MS/MS); format: in vivo; settings: Wistar, rat
Procedure: Plasma samples (200 μL) and IS solution (50 μL, 1215 ng/mL for diphenhydramine, 476 ng/mL for chloromycetin) were added in an Eppendorf tube, and this mixture was extracted with methanol (550 μL) by shaking on a vortex-mixer for 2 min, and centrifuged for 10 min at 13,000 rpm. The contents were evaporated to dryness on a rotary evaporator at 37 °C. The residue was reconstituted in methanol (100 μL) and centrifuged (13,000 rpm for 10 min). The supernatant was transferred to an auto sample vail and an aliquot of 5 μL was injected onto the UPLC-MS/MS system for analysis.
The developed and validated method was applied to the pharmacokinetic evaluation of the four compounds after oral administration of different fractions to normal rats (Figure 3).
Raw materials of Glycyrrhiza uralensis Fisch (Gancao), Paeonia lactiflora Pall (Baishao), Pinellia ternata Breit (Banxia) in a weight ratio of 10:15:9 (50, 75 and 45 g) were crushed into small pieces. The mixture was refluxed with 1.7 L water for 1 h and with 1.36 L water for 1 h. The filtrates were combined and concentrated below 70 °C to obtain a certain volume at the ratio of 1.5:1 (w/w, weight of all constituting herbs and the extract filtrates) under vacuum. Powder of Euphorbia kansui T. N. Liou ex T. P. Wang. […] The same method was used to prepare GSBXD minus Gancao (GSBXD-GC); GSBXD minus Gansui (GSBXD-GS); GSBXD minus Gancao and Gansui (GSBXD-GG); the extract of Gancao and Gansui (GG) and the extract of Gancao (GC). The extracts contained 19.21, 18.73, 46.53, 15.82 μg/mL of compounds 1–4 in GSBXD; 0, 0, 51.03, 17.88 μg/mL of compounds 1–4 in GSBXD-GC; 19.21, 18.73, 46.53, 15.82 μg/mL of compounds 1–4 in GSBXD-GS; 0, 0, 51.03, 17.88 μg/mL of compounds 1–4 in GSBXD-GG; 20.03, 17.09, 0, 0 μg/mL of compounds 1–4 in GG, 20.03, 17.09, 0, 0 μg/mL of compounds 1–4 in GC.
For pharmacokinetic studies, Wistar rats were divided into ten groups (n = 6 per group). Rats in the normal and model GSBXD groups were administered GSBXD at a dose of 15 mL/kg intragastrically. In the normal and model GSBXD-GC groups, GSBXD-GC (12 mL/kg) was administrated. In the normal and model GSBXD-GS groups, GSBXD-GS (15 mL/kg) was administrated. In the normal and model GSBXD-GC-GS groups, GSBXD-GC-GS (12 mL/kg) was administrated. In the normal and model GG groups, GG (7.5 mL/kg) was administrated. Blood samples were collected at specific time points before (0 min) and after oral administration (5, 10, 20, 40, 60, 120, 240, 360, 480, 600 and 1440 min). A total of 720 blood samples were collected. All the blood samples were immediately centrifuged at 2500 rpm for 10 min to obtain plasma, which was labeled and frozen at −80 °C until analysis. Blank plasma was obtained from the rats without oral administration and was used to investigate the assay development and validation.
To determine the pharmacokinetic parameters of compounds 1–4 in different groups, concentration–time data were analyzed by DAS 3.2 software (Mathematical Pharmacology Professional Committee of China, Shanghai, China, 2011). Data were expressed as the mean […] standard deviation (S.D.) with triplicate measurements. The identification of significances between different groups was carried out with Student’s t-test. A P value < 0.05 was considered statistically significant.

[2] = Stability of the four compounds in rat plasma QC samples (freeze-thaw, storage at −80 °C, autosampler); format: physicochemical; settings: for Stability, Autosampler for 24 h, Accuracy: processed rat plasma, auto-sampler 4 °C for 24 h; for Stability, Freeze-thaw cycles, Accuracy / Stability, At −80 °C for a Month, Accuracy: rat plasma; for Stability, Freeze-thaw cycles, Accuracy: three freeze-thaw cycles −80 °C to 20 °C
Procedure: Stability of the four analytes during the sample storing and processing procedures was fully evaluated by analysis of QC samples.
Three QC samples (five samples for each) were tested for pre-treatment, post-treatment, three freeze-thaw cycles and long-term stabilities. Pre-treatment stability was assessed by exposing QC samples at room temperature for 4 h. Post-treatment stability was evaluated by placing QC samples in the auto-sampler at 4 °C for 24 h. For freeze–thaw cycle stability assessment, QC samples were repeatedly frozen and thawed for three cycles from −80 °C to 20 °C. […]

[3] = 7.5 mL/kg, group GG (extract of Gancao and Gansui), 7.5 mL/kg oral, normal rats, n = 6, mean ± S.D.
[4] = 15 mL/kg, group GSBXD, 15 mL/kg intragastrically, normal rats, n = 6, mean ± S.D.
[5] = 15 mL/kg, group GSBXD-GS (GSBXD minus Gansui), 15 mL/kg oral, normal rats, n = 6, mean ± S.D.
[6] = group GC (extract of Gancao), oral, normal rats, n = 6, mean ± S.D.
[7] = high QC concentration (1.23 × 10^3, 1.11 × 10^3, 1.14 × 10^3, 1.42 × 10^3 ng/mL for 1–4)
[8] = low QC concentration (1.91 × 10, 4.32, 1.78 × 10, 1.11 × 10 ng/mL for 1–4)
[9] = middle QC concentration (3.09 × 10^2, 1.38 × 10^2, 1.43 × 10^2, 1.77 × 10^2 ng/mL for 1–4)
[10] = 12 mL/kg, group GSBXD-GC (GSBXD minus Gancao), 12 mL/kg oral, normal rats, n = 6, mean ± S.D.
[11] = 12 mL/kg, group GSBXD-GG (GSBXD minus Gancao and Gansui), 12 mL/kg oral, normal rats, n = 6, mean ± S.D.

Work on `CC1(C)[C@@H](O[C@H]2O[C@H](C(=O)O)[C@@H](O)[C@H](O)[C@H]2O[C@@H]2O[C@H](C(=O)O)[C@@H](O)[C@H](O)[C@H]2O)CC[C@]2(C)[C@H]3C(=O)C=C4[C@@H]5C[C@@](C)(C(=O)O)CC[C@]5(C)CC[C@@]4(C)[C@]3(C)CC[C@@H]12` [Compound 1, glycyrrhizinic acid] yielded an AUC(0-t) [1, 3] of 788 ± 110 ng·h/mL, a Cmax [1, 3] of 364 ± 46.2 ng/mL and a Tmax [1, 3] of 0.64 ± 0.34 h. It also gave a half-life [1, 3] of 9.29 ± 4.7 h, an AUC(0-t) [1, 4] of 2630 ± 532 ng·h/mL and a Cmax [1, 4] of 503 ± 199 ng/mL. It also gave a Tmax [1, 4] of 0.33 h, a half-life [1, 4] of 5.93 ± 2.67 h and an AUC(0-t) [1, 5] of 1280 ± 393 ng·h/mL. It also gave a Cmax [1, 5] of 214 ± 55.4 ng/mL, a Tmax [1, 5] of 1.67 ± 0.12 h and a half-life [1, 5] of 11.6 ± 5.74 h. For the same molecule, the AUC(0-t) [1, 6] was 486 ± 136 ng·h/mL, the Cmax [1, 6] was 147 ± 19.9 ng/mL and the Tmax [1, 6] was 0.36 ± 0.16 h. For the same molecule, the half-life [1, 6] was 0.79 ± 0.39 h, the “Stability, Autosampler for 24 h, Accuracy” value (shortened to “Stability, Autosampler”) [2, 7] was 87.36% and the “Stability, Autosampler” value [2, 8] was 93.94%. The “Stability, Autosampler” value [2, 9] was 92.23%, the “Stability, Freeze-thaw cycles, Accuracy” value [2, 7] was 94.33% and the “Stability, Freeze-thaw cycles, Accuracy” value [2, 8] was 98.83%. The “Stability, Freeze-thaw cycles, Accuracy” value [2, 9] was 91.02%, the “Stability, At −80 °C for a Month, Accuracy” value (from here on “Stability, At −80 °C”) [2, 7] was 98.18% and the “Stability, At −80 °C” value [2, 8] was 89.99%. For the same molecule, the “Stability, At −80 °C” value [2, 9] was 91.37%.

`O=C1C[C@@H](c2ccc(O[C@@H]3O[C@H](CO)[C@@H](O)[C@H](O)[C@H]3O)cc2)Oc2cc(O)ccc21` [Compound 2, liquiritin] showed an AUC(0-t) [1, 3] of 788 ± 110 ng·h/mL, a Cmax [1, 3] of 200 ± 42.4 ng/mL and a Tmax [1, 3] of 0.32 ± 0.27 h. The half-life [1, 3] was 12.9 ± 4.76 h, the AUC(0-t) [1, 4] was 794 ± 142 ng·h/mL and the Cmax [1, 4] was 193 ± 84.5 ng/mL. For the same molecule, the Tmax [1, 4] was 0.39 ± 0.14 h, the half-life [1, 4] was 7.04 ± 2.99 h and the AUC(0-t) [1, 5] was 421 ± 222 ng·h/mL. For the same molecule, the Cmax [1, 5] was 98.9 ± 26.8 ng/mL, the Tmax [1, 5] was 0.17 ± 0.11 h and the half-life [1, 5] was 6.84 ± 3.11 h. For the same molecule, the AUC(0-t) [1, 6] was 797 ± 174 ng·h/mL, the Cmax [1, 6] was 139 ± 33.5 ng/mL and the Tmax [1, 6] was 0.5 ± 0.18 h. The half-life [1, 6] was 5.26 ± 1.93 h, the “Stability, Autosampler” value [2, 7] was 97.11% and the “Stability, Autosampler” value [2, 8] was 88.92%. The “Stability, Autosampler” value [2, 9] was 97.49%, the “Stability, Freeze-thaw cycles, Accuracy” value [2, 7] was 95.35% and the “Stability, Freeze-thaw cycles, Accuracy” value [2, 9] was 89.99%. The “Stability, At −80 °C” value [2, 7] was 96.71%, the “Stability, At −80 °C” value [2, 8] was 91.03% and the “Stability, At −80 °C” value [2, 9] was 99.99%.

With `C[C@@]12C[C@@]3(O)O[C@@H](O1)[C@]1(COC(=O)c4ccccc4)[C@H]3C[C@@]12O[C@@H]1O[C@H](CO)[C@@H](O)[C@H](O)[C@H]1O` [Compound 3, paeoniflorin] the Tmax ([1]; 12 mL/kg) was 0.5 ± 0.28 h, the AUC(0-t) [1, 10] was 362 ± 40.4 ng·h/mL and the Cmax [1, 10] was 74.1 ± 26 ng/mL. For the same molecule, the Tmax [1, 10] was 0.31 ± 0.07 h, the half-life [1, 10] was 16 ± 2.62 h and the AUC(0-t) [1, 11] was 659 ± 411 ng·h/mL. For the same molecule, the Cmax [1, 11] was 150 ± 24.5 ng/mL, the half-life [1, 11] was 21.4 ± 8.85 h and the AUC(0-t) [1, 4] was 825 ± 96 ng·h/mL. It also gave a Cmax [1, 4] of 82.8 ± 15.7 ng/mL, a Tmax [1, 4] of 0.81 ± 0.34 h and a half-life [1, 4] of 12.6 ± 7.46 h. The AUC(0-t) [1, 5] was 910 ± 476 ng·h/mL, the Cmax [1, 5] was 101 ± 18 ng/mL and the Tmax [1, 5] was 1.33 ± 0.37 h. The half-life [1, 5] was 7.9 ± 1.17 h, the “Stability, Autosampler” value [2, 7] was 104.13% and the “Stability, Autosampler” value [2, 8] was 98.03%. The “Stability, Autosampler” value [2, 9] was 91.28%, the “Stability, Freeze-thaw cycles, Accuracy” value [2, 7] was 91.57% and the “Stability, Freeze-thaw cycles, Accuracy” value [2, 8] was 87.63%. The “Stability, Freeze-thaw cycles, Accuracy” value [2, 9] was 92.10%, the “Stability, At −80 °C” value [2, 7] was 89.55% and the “Stability, At −80 °C” value [2, 8] was 87.54%. The “Stability, At −80 °C” value [2, 9] was 95.32%.

`CC12CC(O)C3CC1(OC1OC(CO)C(O)C(O)C1O)C3(COC(=O)c1ccccc1)C(=O)O2` (stereo not drawn) [Compound 4, albiflorin] gave an AUC(0-t) [1, 10] of 619 ± 130 ng·h/mL, a Cmax [1, 10] of 88.5 ± 18.3 ng/mL and a Tmax [1, 10] of 0.81 ± 0.62 h. The half-life [1, 10] was 7.74 ± 0.74 h, the AUC(0-t) [1, 11] was 785 ± 158 ng·h/mL and the Cmax [1, 11] was 113 ± 25.8 ng/mL. It also gave a Tmax [1, 11] of 0.56 ± 0.27 h, a half-life [1, 11] of 8.73 ± 0.98 h and an AUC(0-t) [1, 4] of 1110 ± 346 ng·h/mL. For the same molecule, the Cmax [1, 4] was 255 ± 98 ng/mL, the Tmax [1, 4] was 0.33 ± 0.18 h and the half-life [1, 4] was 8.06 ± 1.44 h. For the same molecule, the AUC(0-t) [1, 5] was 514 ± 271 ng·h/mL, the Cmax [1, 5] was 142 ± 39.8 ng/mL and the Tmax [1, 5] was 0.28 ± 0.14 h. For the same molecule, the half-life [1, 5] was 9.07 ± 0.87 h, the “Stability, Autosampler” value [2, 7] was 99.91% and the “Stability, Autosampler” value [2, 8] was 97.15%. The “Stability, Autosampler” value [2, 9] was 91.22%, the “Stability, Freeze-thaw cycles, Accuracy” value [2, 7] was 98.33% and the “Stability, Freeze-thaw cycles, Accuracy” value [2, 8] was 93.49%. For the same molecule, the “Stability, Freeze-thaw cycles, Accuracy” value [2, 9] was 102.34%, the “Stability, At −80 °C” value [2, 7] was 88.48% and the “Stability, At −80 °C” value [2, 8] was 101.5%. The “Stability, At −80 °C” value [2, 9] was 79.13%.
